1 compound from US12558342B2, “2-[2-({12,12-dimethyl-4-oxo-6-phenyl-3,11-dioxatricyclo[8.4.0.0,2,7]tetradeca-1,5,7,9-tetraen-8-yl}oxy)acetamido]benzamide and derivatives as inhibitor of clock:bmal1 interaction for the treatment of circadian rhythm diseases and disorders” (KOC UNIVERSITESI, priority 2019, dated 2026) can be followed below.

The test system of assay [1] is Bmal1, Clock, and Cry1. The experiment in a line: In vivo study in mouse liver, qPCR. As to conditions: 25 mg/kg i.p., 6 h. The method, then:
Male C57BL/6J mice, 8 weeks of age, weighing 18-24 g were treated with two different single doses of CLK8 (25 mg/kg n=5 per each dose) intraperitoneally. Control mice (n=3) were only treated with vehicle (DMSO:Cremophor EL: 0.9% NaCl; 2.5:15:82.5, v/v, i.p.). Water and food were provided ad libitum throughout the experiments. Six hours after injection, mice were sacrificed by cervical dislocation. Liver tissues were removed, frozen in liquid nitrogen and stored at −80° C. until further processing.
(In general: Quantitative PCR measures a nucleic acid by following its amplification.)

The subject of assay [2] is Bmal1::dluc U2OS cells. Nature of the assay: Real-time monitoring of circadian rhythm, Bmal1::dluc U2OS. In kind it is cell-based, human. As for the experimental part: We used Bmal1::dluc U2-OS and Per1::dluc NIH 3T3, and continuously monitored the bioluminescence to record circadian rhythm. This experiment was performed in 96-well plates (triplicates) and 35-mm dishes (duplicates) in the secondary screen and detailed characterization steps respectively. Briefly, cells were seeded to reach confluency. A day after, the medium was replaced with DMEM containing 0.1 μM Dexamethasone to synchronize cells. Two hour later, 0.1 mM of Luciferin was freshly added to the recording medium (low glucose DMEM powder (with L-glutamine) supplemented with 10 mM HEPES, […] sodium bicarbonate, 3.5 mg/ml D-(+)-glucose powder, 5% FBS, 0.1 mM NEAA, 100 U/ml penicillin and […]). Then, the medium was replaced with recording medium containing appropriate amount of each compound. Control cells were treated with 0.5% vehicle (DMSO). For a detailed characterization of CLK8, whenever required, and without any further medium change, small molecule treatment was postponed to two days after bioluminescence recording started. The 96-well plates were covered and bioluminescence was monitored by Synergy H1 Hybrid Multi-Mode Reader every 32 minutes. Similarly, we sealed the 35-mm plates with vacuum grease prior to mounting them on a LumiCycle luminometer (Actimetrics). Bioluminescence was recorded every 10 minutes for 4-6 days. Raw data (counts/sec) were plotted against time. The period and amplitude parameters were obtained using LumiCycle Analysis software (Actimetrics). First, the raw data was baseline fitted (n=1), and then the baseline-subtracted data was fitted to a sine wave (damped). The first day's data was excluded from the analysis due to transient perturbations of luminescence after the medium change.
(§1) We used Bmal1::dluc U2-OS and Per1::dluc NIH 3T3, and continuously monitored the bioluminescence to record circadian rhythm. This experiment was performed in 96-well plates (triplicates) and 35-mm dishes (duplicates) in the secondary screen and detailed characterization steps respectively. Briefly, cells were seeded to reach confluency. A day after, the medium was replaced with DMEM containing 0.1 μM Dexamethasone to synchronize cells. Two hour later, 0.1 mM of Luciferin was freshly added to the recording medium (low glucose DMEM powder (with L-glutamine) supplemented with 10 mM HEPES, 0.35 mg/ml sodium bicarbonate, 3.5 mg/ml D-(+)-glucose powder, 5% FBS, 0.1 mM NEAA, 100 U/ml penicillin and 100 mg/ml streptomycin). […] The 96-well plates were covered and bioluminescence was monitored by Synergy H1 Hybrid Multi-Mode Reader every 32 minutes. […] Bioluminescence was recorded every 10 minutes for 4-6 days. […] The first day's data was excluded from the analysis due to transient perturbations of luminescence after the medium change.

For assay [3], the system named is Clock-deficient MDA MB231 cells. The experiment in a line: Bmal1::dluc rhythm in Clock knockout MDA MB231 cells. Format: cell-based. As to conditions: Clock knockout MDA MB231, different concentrations. As for the experimental part: as §1, with “cells.” for “cells. Two hour later, 0.1 mM of Luciferin was freshly added to the recording medium (low glucose DMEM powder (with L-glutamine) supplemented with 10 mM HEPES, 0.35 mg/ml sodium bicarbonate, 3.5 mg/ml D-(+)-glucose powder, 5% FBS, 0.1 mM NEAA, 100 U/ml penicillin and 100 mg/ml streptomycin).”
HEK 293T cells at 75-85% confluency were transfected with […] of pLV6-Bmal-luc plasmid, 9 ng of pCMV-AR8.2dvpr packaging vector and 1 ng of pCMV-VSVG envelope vector for 16 h. […] At 72-hour post-transduction, the circadian rhythms of cells monitored using Lumicycle.
We used Bmal1::dluc U2-OS and Per1::dluc NIH 3T3, and continuously monitored the bioluminescence to record circadian rhythm. […] The 96-well plates were covered and bioluminescence was monitored by Synergy H1 Hybrid Multi-Mode Reader every 32 minutes. […] Bioluminescence was recorded every 10 minutes for 4-6 days. […]

Consider `CC1(C)CCc2c(cc(OCC(=O)Nc3ccccc3C(N)=O)c3c(-c4ccccc4)cc(=O)oc23)O1` [CLK8, 2-[2-({12,12-dimethyl-4-oxo-6-phenyl-3,11-dioxatricyclo [8.4.0.0,2,7]tetradeca-1,5,7,9-tetraen-8-yl}oxy)acetamido] benzamide], for which the “Cry1 gene's transcriptional level (liver)” value in assay [1] is listed as “significantly changed”. For the same compound, the enhancement of amplitude result in assay [2] (10 μM, treated two days after synchronization) is given as “more than 50%”. In assay [2] (U2OS-Bmal1::dLuc), the “period of circadian rhythm” value is “no period changes”. The “amplitude of circadian rhythm” value in assay [2] (U2OS-Bmal1::dLuc, dose dependent) was “enhances the amplitude”. Besides, in assay [2] (treated two days after synchronization, vs DMSO control), the “phase of the first trough after treatment” value is “advanced the phase of the first trough”. The “CLK8-mediated increase in Bmal1-luc intensity” value in assay [3] is on record as “abolished”.
